The test concerns the target T1, PI3Kδ (Homo sapiens, UniProt O00329).
T1 construct: Full length p110 subunits of PI3k α, β and δ, N-terminally labeled with polyHis tag; polyHis (N); made in house; host or cells: Sf9 insect cells (baculovirus)
Nature of the test: PI3Kδ Alphascreen assay. It is filed as biochemical. How it is done:
Full length p110 subunits of PI3k α, β and δ, N-terminally labeled with polyHis tag, were coexpressed with p85 with Baculo virus expression vectors in sf9 insect cells. P110/p85 heterodimers were purified by sequential Ni-NTA, Q-HP, Superdex-100 chromatography. Purified α, β and δ isozymes were stored at −20° C. in 20 mM Tris, pH 8, 0.2M NaCl, 50% glycerol, 5 mM DTT, 2 mM Na cholate. […] The γ isozyme was purified by sequential Ni-NTA, Superdex-200, Q-HP chromatography. The γ isozyme was stored frozen at −80° C. in NaH2PO4, pH 8, 0.2M NaCl, 1% ethylene glycol, 2 mM β-mercaptoethanol.
A PI3K Alphascreen® assay (PerkinElmer, Waltham, Mass.) was used to measure the activity of a panel of four phosphoinositide 3-kinases: PI3Kα, PI3Kβ, PI3Kγ, and PI3Kδ. Enzyme reaction buffer was prepared using sterile water (Baxter, Deerfield, Ill.) and 50 mM Tris HCl pH 7, 14 mM MgCl2, 2 mM sodium cholate, and 100 mM NaCl. 2 mM DTT was added fresh the day of the experiment. The Alphascreen buffer was made using sterile water and 10 mM Tris HCl pH 7.5, 150 mM NaCl, 0.10% Tween 20, and 30 mM EDTA. 1 mM DTT was added fresh the day of the experiment. Compound source plates used for this assay were 384-well Greiner clear polypropylene plates containing test compounds at 5 mM and diluted 1:2 over 22 concentrations. Columns 23 and 24 contained only DMSO as these wells comprised the positive and negative controls, respectively. Source plates were replicated by transferring 0.5 uL per well into 384-well Optiplates (PerkinElmer, Waltham, Mass.).
Each PI3K isoform was diluted in enzyme reaction buffer to 2× working stocks. […] PI(4,5)P2 (Echelon Biosciences, Salt Lake City, Utah) was diluted to 10 μM and ATP was diluted to 20 μM. This 2× stock was used in the assays for PI3Kα and PI3Kβ. For assay of PI3Kγ and PI3Kδ, PI(4,5)P2 was diluted to 10 μM and ATP was diluted to 8 μM to prepare a similar 2× working stock. Alphascreen reaction solutions were made using beads from the anti-GST Alphascreen kit (PerkinElmer, Waltham, Mass.). Two 4× working stocks of the Alphascreen reagents were made in Alphascreen reaction buffer. In one stock, biotinylated-IP4 (Echelon Biosciences, Salt Lake City, Utah) was diluted to 40 nM and streptavidin-donor beads were diluted to 80 μg/mL. In the second stock, PIP3-binding protein (Echelon Biosciences, Salt Lake City, Utah) was diluted to 40 nM and anti-GST-acceptor beads were diluted to 80 μg/mL.
10 μL/well of the appropriate substrate 2× stock (containing 20 μM ATP for the PI3Kα and β assays and containing 8 μM ATP for the PI3Kγ and δ assays) was then added to Columns 1-24 of all plates. Plates were then incubated at room temperature for 20 minutes. In the dark, 10 μL/well of the donor bead solution was added to columns 1-24 of the plates to quench the enzyme reaction. The plates were incubated at room temperature for 30 minutes. Still in the dark, 10 μL/well of the acceptor bead solution was added to columns 1-24 of the plates. The plates were then incubated in the dark for 1.5 hours. The plates were read on an Envision multimode Plate Reader (PerkinElmer, Waltham, Mass.) using a 680 nm excitation filter and a 520-620 nm emission filter.
On the technique in general: Alpha assays give light when donor and acceptor beads are brought close together.

By Ki is commonly meant a measure of affinity in units of concentration, obtained from inhibition or displacement. Low values mean tighter binding, high ones weaker binding.

T1 sequence (O00329 whole entry): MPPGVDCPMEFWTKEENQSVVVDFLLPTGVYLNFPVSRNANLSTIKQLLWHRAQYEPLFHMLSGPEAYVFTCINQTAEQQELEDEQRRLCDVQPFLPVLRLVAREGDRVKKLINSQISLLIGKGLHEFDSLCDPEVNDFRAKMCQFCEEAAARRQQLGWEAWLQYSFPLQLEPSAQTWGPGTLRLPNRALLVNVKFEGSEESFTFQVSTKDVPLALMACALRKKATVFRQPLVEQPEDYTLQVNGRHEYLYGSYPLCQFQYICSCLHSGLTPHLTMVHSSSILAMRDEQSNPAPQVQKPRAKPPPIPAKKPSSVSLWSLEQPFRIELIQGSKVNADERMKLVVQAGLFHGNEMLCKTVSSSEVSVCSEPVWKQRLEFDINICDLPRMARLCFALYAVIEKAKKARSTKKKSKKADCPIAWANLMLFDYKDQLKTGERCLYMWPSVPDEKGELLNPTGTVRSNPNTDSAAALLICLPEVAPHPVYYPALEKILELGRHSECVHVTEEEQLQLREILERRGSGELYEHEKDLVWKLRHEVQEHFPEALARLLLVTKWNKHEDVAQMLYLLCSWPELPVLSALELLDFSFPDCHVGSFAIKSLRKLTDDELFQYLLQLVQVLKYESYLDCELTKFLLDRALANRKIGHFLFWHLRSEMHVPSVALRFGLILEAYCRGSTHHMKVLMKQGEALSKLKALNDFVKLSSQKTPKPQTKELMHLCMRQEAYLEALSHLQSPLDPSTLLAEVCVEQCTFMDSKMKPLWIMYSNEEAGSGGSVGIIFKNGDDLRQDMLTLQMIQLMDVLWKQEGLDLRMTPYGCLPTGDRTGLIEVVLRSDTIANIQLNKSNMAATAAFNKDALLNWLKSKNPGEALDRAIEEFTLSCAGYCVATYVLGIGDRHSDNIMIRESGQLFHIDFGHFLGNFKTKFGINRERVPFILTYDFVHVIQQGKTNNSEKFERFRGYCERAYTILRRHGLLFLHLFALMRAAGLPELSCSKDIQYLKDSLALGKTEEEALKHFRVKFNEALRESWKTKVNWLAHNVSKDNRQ
T1 sequence (P27986 whole entry partner): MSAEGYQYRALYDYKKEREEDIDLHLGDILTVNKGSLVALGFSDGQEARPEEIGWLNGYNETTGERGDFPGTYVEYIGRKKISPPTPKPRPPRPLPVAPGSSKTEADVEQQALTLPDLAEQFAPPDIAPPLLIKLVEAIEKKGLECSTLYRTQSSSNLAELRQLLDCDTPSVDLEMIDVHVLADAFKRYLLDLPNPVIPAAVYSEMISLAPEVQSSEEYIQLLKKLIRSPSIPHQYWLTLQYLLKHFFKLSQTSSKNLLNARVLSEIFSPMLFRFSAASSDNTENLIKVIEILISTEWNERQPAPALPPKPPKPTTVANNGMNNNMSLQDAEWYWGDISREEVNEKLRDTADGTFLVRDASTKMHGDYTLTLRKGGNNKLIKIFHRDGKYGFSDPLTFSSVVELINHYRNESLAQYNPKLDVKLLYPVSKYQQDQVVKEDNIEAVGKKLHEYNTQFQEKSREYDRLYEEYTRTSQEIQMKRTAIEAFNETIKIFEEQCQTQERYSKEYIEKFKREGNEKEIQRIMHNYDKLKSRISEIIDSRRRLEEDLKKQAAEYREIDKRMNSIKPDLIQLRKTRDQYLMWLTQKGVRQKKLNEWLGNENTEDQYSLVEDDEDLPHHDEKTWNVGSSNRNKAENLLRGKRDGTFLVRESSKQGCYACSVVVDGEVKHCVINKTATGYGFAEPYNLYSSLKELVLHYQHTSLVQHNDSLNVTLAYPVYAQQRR

In turn, `COc1c(-c2ccccc2)c([C@@H](C)Nc2ncnc(N)c2C#N)nc2ccc(F)cc12` [(R)-4-amino-6-(1-(6-fluoro-4-methoxy-3-phenylquinolin-2-yl)ethylamino)pyrimidine-5-carbonitrile] gave an inhibitory constant (Ki) of 271 nM. In turn, `C[C@@H](Nc1ncnc2[nH]cnc12)c1nc2ccc(F)cc2cc1-c1ccccn1` [(R)—N-(1-(6-fluoro-3-(pyridin-2-yl)quinolin-2-yl)ethyl)-9H-purin-6-amine] yielded a Ki of 217 nM. Take `C[C@@H](Nc1ncnc2[nH]cnc12)c1nc2ccc(F)cc2c(S(C)(=O)=O)c1-c1ccccc1` [(R)—N-(1-(6-fluoro-4-(methylsulfonyl)-3-phenylquinolin-2-yl)ethyl)-9H-purin-6-amine]: the Ki was determined as 410 nM. Take `C[C@H](Nc1ncnc(N)c1C#N)c1nc2ccc(F)cc2c(C(=O)NCCO)c1-c1ccccn1` [(S)-2-(1-(6-Amino-5-cyanopyrimidin-4-ylamino)ethyl)-6-fluoro-N-(2-hydroxyethyl)-3-(pyridin-2-yl)quinoline-4-carboxamide]: the Ki was found to be 7.57 nM.

In the case of `C[C@H](Nc1ncnc(N)c1C#N)c1nc2ccc(F)cc2c(C(=O)NC2CC2)c1-c1ccccn1` [(S)-2-(1-(6-Amino-5-cyanopyrimidin-4-ylamino)ethyl)-N-cyclopropyl-6-fluoro-3-(pyridin-2-yl)quinoline-4-carboxamide], the Ki was found to be 1.64 nM. The compound `COc1c(-c2cc(F)cc(F)c2)c([C@H](C)Nc2ncnc(N)c2C#N)nc2ccc(F)cc12` [(S)-4-Amino-6-(1-(3-(3,5-difluorophenyl)-6-fluoro-4-methoxyquinolin-2-yl)-ethylamino)pyrimidine-5-carbonitrile] had a Ki of 68.4 nM. The figure for `C[C@H](Nc1ncnc(N)c1C#N)c1nc2cccc(F)c2c(S(C)(=O)=O)c1-c1ccccc1` [(S)-4-Amino-6-(1-(5-fluoro-4-(methylsulfonyl)-3-phenylquinolin-2-yl)ethylamino)pyrimidine-5-carbonitrile] is 1.3 nM. As to `C[C@H](Nc1ncnc(N)c1C#N)c1nc2ccc(F)cc2cc1-c1cccc(S(C)(=O)=O)n1` [(S)-4-Amino-6-(1-(6-fluoro-3-(6-(methylsulfonyl)pyridin-2-yl)quinolin-2-yl)ethylamino)pyrimidine-5-carbonitrile], the Ki came to 130 nM.

The compound `C[C@@H](c1nc2ccc(F)cc2cc1-c1ccccn1)n1nc(C#N)c2c(N)ncnc21` [(S)-4-amino-1-(1-(6-fluoro-3-(pyridin-2-yl)quinolin-2-yl)ethyl)-1H-pyrazolo[3,4-d]pyrimidine-3-carbonitrile] showed a Ki of 7.67 nM. `COc1c(-c2ccccc2)c([C@H](C)Nc2ncnc(N)c2C#N)nc2ccc(F)cc12` [(S)-4-amino-6-(1-(6-fluoro-4-methoxy-3-phenylquinolin-2-yl)ethylamino)pyrimidine-5-carbonitrile]: the Ki is 1.18 nM. Compound `C[C@H](Nc1ncnc2[nH]cnc12)c1nc2ccc(F)cc2cc1-c1ccccn1` [(S)—N-(1-(6-Fluoro-3-(pyridin-2-yl)quinolin-2-yl)ethyl)-9H-purin-6-amine] returned a Ki of 4.15 nM.

In turn, `C[C@H](Nc1ncnc2[nH]cnc12)c1nc2ccc(F)cc2c(S(C)(=O)=O)c1-c1ccccc1` [(S)—N-(1-(6-fluoro-4-(methylsulfonyl)-3-phenylquinolin-2-yl)ethyl)-9H-purin-6-amine] returned a Ki of 1.12 nM. With `COC(=O)c1c(-c2ccccc2)c(C(C)Nc2ncnc(N)c2C#N)nc2ccc(F)cc12` (stereo not drawn) [Methyl 2-(1-(6-amino-5-cyanopyrimidin-4-ylamino)ethyl)-6-fluoro-3-phenylquinoline-4-carboxylate] the figure was 1.56 nM. The figure for `CC(Nc1cc(N)ncn1)c1nc2ccc(F)cc2cc1-c1ccccn1` (stereo not drawn) [N4-(1-(6-Fluoro-3-(pyridin-2-yl)quinolin-2-yl)ethyl)pyrimidine-4,6-diamine] is 3730 nM.

In the case of `CC(Nc1ncnc2[nH]cnc12)c1nc2cccc(F)c2c(S(C)(=O)=O)c1-c1ccccc1` (stereo not drawn) [N-(1-(5-Fluoro-4-(methylsulfonyl)-3-phenylquinolin-2-yl)ethyl)-9H-purin-6-amine], affinity was put at a Ki of 2.24 nM.
